Results reported in PubChem BioAssay AID330 (DTP/NCI, 2004).
Values joined by “and” are separate entries in the source; they are usually repeats but may differ in a detail not shown here. Identical values can stand only once. Inconclusive results and toxic doses are left out.

Tested on: P388 leukemia ip, CD2F1 mice, survival T/C
Assay: NCI In Vivo Anticancer Drug Screen. Data for tumor model P388 Leukemia (intraperitoneal) in CD2F1 (CDF1) mice
Conditions: endpoint: median survival time, higher = longer survival
Outline: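 Mice carrying the transplanted tumor received test compound or vehicle. Survival was recorded in each group, and the value is the treated-group measurement divided by that of the vehicle-treated control group.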

[1] = dose: 60.0 mg/kg/injection, schedule: Q01DX005 (ip), vehicle: saline
[2] = dose: 120.0 mg/kg/injection, schedule: Q01DX005 (ip), vehicle: saline
[3] = dose: 240.0 mg/kg/injection, schedule: Q01DX005 (ip), vehicle: saline
[4] = dose: 50.0 mg/kg/injection, schedule: Q01DX009 (ip), vehicle: saline with Tween-80
[5] = dose: 100.0 mg/kg/injection, schedule: Q01DX009 (ip), vehicle: saline with Tween-80
[6] = dose: 50.0 mg/kg/injection, schedule: Q01DX005 (ip), vehicle: Klucel (hydroxypropylcellulose) (HPC)
[7] = dose: 100.0 mg/kg/injection, schedule: Q01DX005 (ip), vehicle: Klucel (hydroxypropylcellulose) (HPC)
[8] = dose: 200.0 mg/kg/injection, schedule: Q01DX005 (ip), vehicle: Klucel (hydroxypropylcellulose) (HPC)

With `C/C=C/C1OC(OC)(OC)C1(OC)OC` (stereo not drawn) the T/C [1] was 100 % of control, the T/C [2] was 100 % of control and the T/C [3] was 100 % of control.

`O=NN(CCCl)C(=O)NCCO` was tested, and the T/C (dose: 0.78 mg/kg/injection, schedule: Q01DX005 (ip), vehicle: water) was 96 % of control, the T/C (dose: 3.12 mg/kg/injection, schedule: Q01DX005 (ip), vehicle: water) was 104 % of control and the T/C (dose: 3.13 mg/kg/injection, schedule: Q01DX005 (ip), vehicle: water) was 250 % of control. For the same compound, the T/C (dose: 12.5 mg/kg/injection, schedule: Q01DX005 (ip), vehicle: water) was 116 % of control, the T/C (dose: 25.0 mg/kg/injection, schedule: Q01DX005 (ip), vehicle: water) was 150 % of control and the T/C (dose: 50.0 mg/kg/injection, schedule: Q01DX005 (ip), vehicle: water) was 218 % of control.

`Cc1cc(SCC(=O)c2ccc(Br)cc2)cc(C)[o+]1` was tested, and the T/C [4] was 100 % of control, the T/C [5] was 86 % of control and the T/C (dose: 100.0 mg/kg/injection, schedule: Q04DX003 (ip), vehicle: saline with Tween-80) was 104 % of control. For the same compound, the T/C (dose: 200.0 mg/kg/injection, schedule: Q04DX003 (ip), vehicle: saline with Tween-80) was 114 % of control.

`NC(CCCOS(=O)(=O)O)Cc1ccc2ccccc2c1` (stereo not drawn) was tested, and the T/C (dose: 100.0 mg/kg/injection, schedule: Q04DX003 (ip), vehicle: Klucel (hydroxypropylcellulose) (HPC)) was 100 % of control, the T/C (dose: 200.0 mg/kg/injection, schedule: Q04DX003 (ip), vehicle: Klucel (hydroxypropylcellulose) (HPC)) was 100 % of control and the T/C (dose: 400.0 mg/kg/injection, schedule: Q04DX003 (ip), vehicle: Klucel (hydroxypropylcellulose) (HPC)) was 94 % of control.

With `O=C(Nc1ccccc1)P(=S)(c1ccccc1)c1ccccc1` the T/C [6] was 101 % of control and 112 % of control, the T/C [7] was 104 % of control and the T/C [8] was 101 % of control and 106 % of control.

`CN(C(=S)Nc1ccccc1)c1nnn(C)n1` was tested, and the T/C [4] was 98 % of control, the T/C [5] was 100 % of control and the T/C (dose: 200.0 mg/kg/injection, schedule: Q01DX009 (ip), vehicle: saline with Tween-80) was 107 % of control.

For `NC(CSCCSCC(N)C(=O)O)C(=O)O` (stereo not drawn), the T/C (dose: 50.0 mg/kg/injection, schedule: Q01DX009 (ip), vehicle: Klucel (hydroxypropylcellulose) (HPC)) was 110 % of control, the T/C (dose: 100.0 mg/kg/injection, schedule: Q01DX009 (ip), vehicle: Klucel (hydroxypropylcellulose) (HPC)) was 98 % of control and the T/C (dose: 200.0 mg/kg/injection, schedule: Q01DX009 (ip), vehicle: Klucel (hydroxypropylcellulose) (HPC)) was 104 % of control.

With `c1ccc(CN2CSC3CCCCC32)cc1` (stereo not drawn) the T/C (dose: 25.0 mg/kg/injection, schedule: Q01DX005 (ip), vehicle: saline) was 102 % of control, the T/C (dose: 50.0 mg/kg/injection, schedule: Q01DX005 (ip), vehicle: saline) was 109 % of control and 110 % of control and the T/C (dose: 100.0 mg/kg/injection, schedule: Q01DX005 (ip), vehicle: saline) was 107 % of control and 118 % of control. The T/C (dose: 200.0 mg/kg/injection, schedule: Q01DX005 (ip), vehicle: saline) was 120 % of control.

With `COC(CC(C)(O)C(F)(F)F)OC` (stereo not drawn) the T/C [1] was 103 % of control, the T/C [2] was 112 % of control and the T/C [3] was 110 % of control.

With `CCOC(=O)Nc1nc2ccccc2n1CN1CCCCC1` the T/C (dose: 25.0 mg/kg/injection, schedule: Q01DX005 (ip), vehicle: Klucel (hydroxypropylcellulose) (HPC)) was 97 % of control, the T/C [6] was 100 % of control and the T/C [7] was 106 % of control. For the same compound, the T/C [8] was 115 % of control.

With `Cc1cccc(Nc2c3ccccc3nc3ccccc23)c1` the T/C (dose: 25.0 mg/kg/injection, schedule: Q01DX001 (ip), vehicle: saline with Tween-80) was 95 % of control, the T/C (dose: 50.0 mg/kg/injection, schedule: Q01DX001 (ip), vehicle: saline with Tween-80) was 100 % of control and the T/C (dose: 100.0 mg/kg/injection, schedule: Q01DX001 (ip), vehicle: saline with Tween-80) was 95 % of control.

In the case of `CCN1CCCC(OC(=O)c2cccc3[nH]ccc23)C1` (stereo not drawn), the T/C (dose: 3.13 mg/kg/injection, schedule: Q01DX009 (ip), vehicle: saline with Tween-80) was 118 % of control, the T/C (dose: 6.25 mg/kg/injection, schedule: Q01DX009 (ip), vehicle: saline with Tween-80) was 103 % of control and the T/C (dose: 12.5 mg/kg/injection, schedule: Q01DX009 (ip), vehicle: saline with Tween-80) was 98 % of control. For the same compound, the T/C (dose: 25.0 mg/kg/injection, schedule: Q01DX009 (ip), vehicle: saline with Tween-80) was 99 % of control.
